# Assay results: US8304422B2, “Compositions and methods for inhibition of the JAK pathway” (Rigel Pharmaceuticals, Inc., priority 2007, dated 2012)
# What was measured:
# [1] = test system: Ramos B-Cell Line Stimulated with IL-4; test: Assay for Ramos B-Cell Line Stimulated with IL-4 (CD23 upregulation, FACS; Example 2); format: cell-based; settings: human Ramos B cells, IL-4 50 units/mL for 20-24 hours, anti-CD23-PE
# Outline: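 Human Ramos B cells (5×10^4 per point, RPMI with 5% serum) preincubated 1 hour at 37° C with compound or DMSO, then stimulated with IL-4 at 50 units/mL final for 20-24 hours. CD23 upregulation measured by anti-CD23-PE staining and flow cytometry.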
# BaF3 V617F cells; UKE-1 = test: Proliferation Assay (Cell Titer-Glo; Example 7); format: cell-based; settings: proliferation 72 hours, inhibit JAK2 activity, cell line (BaF3 V617F or UKE-1) not stated
# Outline: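 Proliferation IC50s reflect 72 h compound exposure at 37 °C, read by Cell Titer-Glo luminescence. Compound was serially diluted 3-fold from a 5 mM DMSO stock and added as a 2× solution; BaF3 V617F cells were grown in RPMI/10% FBS, UKE-1 in Iscove's DMEM with FBS, equine serum and hydrocortisone.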
Compound,IC50 [1] [nM],IC50 (BaF3 V617F cells; UKE-1) [nM]
"Cc1cnc(Nc2cccc(C#N)c2)nc1Nc1ccc(CN(C)S(=O)(=O)C2CC2)cc1 [II-28, N2-(3-cyano)phenyl-N4-[4-(N-cyclopropylsulfonyl-N-methyl)aminomethyl]phenyl-5-methyl-2,4-pyrimidinediamine]",233,10900
"Cc1cnc(Nc2ccc(C(N)=O)cc2)nc1Nc1ccc(CNS(=O)(=O)C2CC2)cc1 [II-31, N2-(4-aminocarbonyl)phenyl-N4-(4-cyclopropylsulfonylaminomethyl)phenyl-5-methyl-2,4-pyrimidinediamine]",35.7,2130
"O=S(=O)(NCc1ccc(Nc2nc(NC3CCCC3)ncc2F)cc1)C1CC1 [VIII-2, N2-cyclopentyl-N4-(4-cyclopropylsulfonylaminomethyl)phenyl-5-fluoro-2,4-pyrimidinediamine]",1920,56100
"N#Cc1ccc(Nc2ncc(F)c(Nc3ccc(CNS(=O)(=O)C4CC4)cc3)n2)cc1 [II-29, N2-(4-cyano)phenyl-N4-(4-cyclopropylsulfonylaminomethyl)phenyl-5-fluoro-2,4-pyrimidinediamine]",78.6,12500
"Cc1cnc(Nc2cccc(C#N)c2)nc1Nc1ccc(CNS(=O)(=O)C2CC2)cc1 [II-34, N2-(3-cyano)phenyl-N4-(4-cyclopropylsulfonylaminomethyl)phenyl-5-methyl-2,4-pyrimidinediamine]",45.5,460
"COc1cc(Nc2ncc(C)c(Nc3ccc(CNS(=O)(=O)C4CC4)cc3)n2)cc(OC)c1OC [II-9, N4-(4-cyclopropylsulfonylaminomethyl)phenyl-5-methyl-N2-(3,4,5-trimethoxy)phenyl-2,4-pyrimidinediamine]",82.6,408
"Cc1cc(C)cc(Nc2ncc(C)c(Nc3ccc4c(c3)CCN(S(=O)(=O)C3CC3)C4)n2)c1 [VIII-7, N4-[(N-cyclopropylsulfonyl)-1,2,3,4-tetrahydroisoquinolin-6-yl]-N2-(3,5-dimethyl)phenyl-5-methyl-2,4-pyrimidinediamine]",110,478
"Cc1cc(C)cc(Nc2ncc(C)c(Nc3ccc(CNS(=O)(=O)C4CC4)c(Cl)c3)n2)c1 [II-38, N4-(3-chloro-4-cyclopropylsulfonylaminomethyl)phenyl-N2-(3,5-dimethyl)phenyl-5-methyl-2,4-pyrimidinediamine]",331,1540
"Cc1nc2cc(Nc3ncc(Cl)c(Nc4ccc(CNS(=O)(=O)C5CC5)cc4)n3)ccc2[nH]1 [III-6, 5-chloro-N4-(4-cyclopropylsulfonylaminomethyl)phenyl-N2-(2-methylbenzoimidazol-5-yl)-2,4-pyrimidinediamine]",26.6,1450
"Cc1cnc(Nc2ccc(C(N)=O)cc2)nc1Nc1ccc(CNS(=O)(=O)C2CC2)c(Cl)c1 [II-17, N2-(4-aminocarbonyl)phenyl-N4-(3-chloro-4-cyclopropylsulfonylaminomethyl)phenyl-5-methyl-2,4-pyrimidinediamine]",87.1,2950
"Cc1cc(C)cc(Nc2ncc(C)c(Nc3ccc(CN(C)S(=O)(=O)C4CC4)cc3)n2)c1 [II-39, N4-[4-(N-cyclopropylsulfonyl-N-methyl)aminomethyl]phenyl-N2-(3,5-dimethyl)phenyl-5-methyl-2,4-pyrimidinediamine]",327,2040
"N#Cc1ccc(Nc2ncc(F)c(Nc3ccc(CNS(=O)(=O)C4CC4)cc3)n2)cc1Cl [II-5, N2-(3-chloro-4-cyano)phenyl-N4-(4-cyclopropylsulfonylaminomethyl)phenyl-5-fluoro-2,4-pyrimidinediamine]",364,6060
"Cc1cc(C)cc(Nc2ncc(F)c(Nc3ccc(CNS(=O)(=O)C4CC4)cc3)n2)c1 [II-4, N4-(4-cyclopropylsulfonylaminomethyl)phenyl-N2-(3,5-dimethyl)phenyl-5-fluoro-2,4-pyrimidinediamine]",88,3400
"Cc1cnc(Nc2cccc(C(N)=O)c2)nc1Nc1ccc(CNS(=O)(=O)C2CC2)cc1 [II-32, N2-(3-aminocarbonyl)phenyl-N4-(4-cyclopropylsulfonylaminomethyl)phenyl-5-methyl-2,4-pyrimidinediamine]",52.3,1530
"COc1c(C)cc(Nc2ncc(C)c(Nc3cccc(CNS(=O)(=O)C4CC4)c3)n2)cc1C [II-44, N4-(3-cyclopropylsulfonylaminomethyl)phenyl-N2-(3,5-dimethyl-4-methoxy)phenyl-5-methyl-2,4-pyrimidinediamine]",78.3,488
"Cc1nc2cc(Nc3ncc(F)c(Nc4ccc(CNS(=O)(=O)C5CC5)cc4)n3)ccc2[nH]1 [III-5, N4-(4-cyclopropylsulfonylaminomethyl)phenyl-5-fluoro-N2-(2-methylbenzoimidazol-5-yl)-2,4-pyrimidinediamine]",178,6310
"COc1ccc(Nc2ncc(C)c(Nc3ccc(CNS(=O)(=O)C4CC4)cc3)n2)cc1Cl [II-10, N2-(3-chloro-4-methoxy)phenyl-N4-(4-cyclopropylsulfonylaminomethyl)phenyl-5-methyl-2,4-pyrimidinediamine]",57.8,708
"CCN1CCN(c2ccc(Nc3ncc(C)c(Nc4ccc(CNS(=O)(=O)C5CC5)cc4)n3)cc2C)CC1 [II-8, N4-(4-cyclopropylsulfonylaminomethyl)phenyl-N2-[4-(4-ethylpiperazino)-3-methyl]phenyl-5-methyl-2,4-pyrimidinediamine]",36.2,200
"COc1c(C)cc(Nc2ncc(Cl)c(Nc3ccc(CNS(=O)(=O)C4CC4)cc3)n2)cc1C [II-43, 5-chloro-N4-(4-cyclopropylsulfonylaminomethyl)phenyl-N2-(3,5-dimethyl-4-methoxy)phenyl-2,4-pyrimidinediamine]",38.6,23.9
"O=C(NCCN1CCOCC1)n1ccc2ccc(Nc3ncc(F)c(Nc4ccc(CNS(=O)(=O)C5CC5)cc4)n3)cc21 [III-2, N4-[4-(Cyclopropylsulfonylaminomethyl)phenyl]-5-fluoro-N2-[1-(2-(N-morpholino)ethylaminocarbonyl)indol-6-yl]-2,4-pyrimidinediamine]",911,6180
"Cc1cc(C)cc(Nc2ncc(C)c(Nc3ccc(CNS(=O)(=O)C4CC4)cc3)n2)c1 [II-7, N4-(4-cyclopropylsulfonylaminomethyl)phenyl-N2-(3,5-dimethyl)phenyl-5-methyl-2,4-pyrimidinediamine]",44.9,688
